The test system of data set [1] is anaesthetised guinea pigs. In words: In vivo antiarrhythmic properties (ERP) and blood pressure under tachycardic conditions in anaesthetised guinea pigs. Also on record: species or system guinea pig. As to conditions: i.v. From the text: The effects of the substances on the effective refractory period (=ERP) and the blood pressure on i.v. administration with increased heart rate were investigated on anaesthetised guinea pigs. A bipolar stimulation catheter was inserted into the right ventricle of the animals via a jugular vein under full anaesthesia. The heart rates of the animals were kept at about 150% of their normal heart rates via this catheter by means of electrical stimulation during the entire investigation. A cannula for i.v. administration of the test substances was inserted in the other jugular vein. During the investigation, the systolic and the diastolic arterial blood pressure (=SAP and DAP) were measured in a carotid artery via a pressure gauge (Statham pressure transducer). The test substances were administered i.v. in increasing doses (cumulatively). Before administration of the first dose and in each case 8 minutes after administration of each dose, the ERP was determined by means of a double pulse protocol. The dose at which a prolongation of the ERP to 115% of the starting value was achieved was considered as the effective dose (=ERP-ED115). Effective doses for a hypotensive effect were considered as the dose at which the SAP was decreased to 85% of its starting value (=SAP-ED85), and the dose at which the DAP was decreased to 85% of its starting value (=DAP-ED85).

Data set [2] deals with isolated papillary muscle of the right ventricle of guinea pigs. In words: In vitro functional refractory period on electrically stimulated papillary muscles from guinea-pig hearts. As to conditions: concentration prolonging FRP by 12 milliseconds; stimulation 3 Hz; 20 minutes after addition.
Method: The heart was quickly removed from guinea pigs which had been sacrificed by a blow to the back of the neck and the papillary muscles of the right ventricle were fixed in organ baths through which temperature-controlled oxygenated nutrient solution flowed. The muscle preparations were electrically stimulated with a frequency of 3 Hz. The test substances were added to the organ baths in increasing concentrations (cumulatively). In each case 20 minutes after addition of the test substance, the functional refractory period was determined by means of a double pulse protocol. In each case a cumulative concentration/action curve was plotted from the measured values. The concentration at which a prolongation of the FRP by 12 milliseconds was achieved was calculated from this as the effective concentration (=FRP-EC+12ms).
Another data set concerns mice. In words: Determination of the minimum toxic dose. The class given is in vivo. Conditions: mouse p.o.; lowest dose causing death or severe toxic symptoms; maximum dose 300 mg/kg; observed 72 hours. How it is done:
Male mice each having a weight of 20 to 25 g were administered maximum doses of 300 mg/kg of the test substance p.o. The animals were observed carefully for toxicity symptoms for 3 hours. Additionally all symptoms and deaths were recorded over a period of 72 hours after administration. Concomitant symptoms were likewise observed and recorded. If death or severe toxic symptoms were observed, further mice were administered increasingly lower doses until toxic symptoms no longer occurred. The lowest dose which caused death or severe toxic symptoms is indicated in the following Table A as the minimum toxic dose.

Another data set relates to anaesthetised cats. The data set is described as follows: In vivo fibrillation threshold in anaesthetised cats. Also noted: species or system cat. As to conditions: more marked on the atrium than on the ventricle. From the text:
Such an atrioselective increase in the fibrillation threshold is an indication that the tested compound has a beneficial action profile with a reduced proarrhythmogenity risk.

The next data set deals with T1, iKs (Canis lupus familiaris, UniProt A0A8I3N8W8).
T1 construct: the individualised cardiac muscle cells are investigated electrophysiologically using the “whole-cell patch-clamp” method; from tissue; host or cells: isolated dog left ventricular cardiac muscle cells
T1 sequence (A0A8I3N8W8 1-676): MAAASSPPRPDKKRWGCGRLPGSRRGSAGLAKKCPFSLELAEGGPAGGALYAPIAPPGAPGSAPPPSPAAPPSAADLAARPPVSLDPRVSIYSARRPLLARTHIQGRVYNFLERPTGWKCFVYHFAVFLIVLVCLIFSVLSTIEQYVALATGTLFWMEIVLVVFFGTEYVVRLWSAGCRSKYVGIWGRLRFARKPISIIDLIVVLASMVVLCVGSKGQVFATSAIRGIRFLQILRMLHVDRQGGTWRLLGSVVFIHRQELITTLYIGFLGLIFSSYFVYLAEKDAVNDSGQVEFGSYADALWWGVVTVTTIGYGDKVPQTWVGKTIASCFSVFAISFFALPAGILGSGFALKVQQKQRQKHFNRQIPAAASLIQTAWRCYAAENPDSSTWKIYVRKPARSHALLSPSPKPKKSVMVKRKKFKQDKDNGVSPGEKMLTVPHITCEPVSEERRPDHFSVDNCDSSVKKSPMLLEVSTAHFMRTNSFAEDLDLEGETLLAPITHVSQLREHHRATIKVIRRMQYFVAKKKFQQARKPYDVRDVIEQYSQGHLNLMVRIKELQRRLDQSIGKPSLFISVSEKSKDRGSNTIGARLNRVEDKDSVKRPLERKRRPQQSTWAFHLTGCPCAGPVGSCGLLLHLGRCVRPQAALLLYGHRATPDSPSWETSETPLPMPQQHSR
The data set is described as follows: Blocking action on slow delayed rectifier potassium current iKs, whole-cell patch-clamp on dog cardiac muscle cells. As to conditions: dog left ventricle cardiac muscle cells; 1 μM nisoldipine and 2 μM E-4031 added; holding potential -40 mV. The class given is cell-based. How it is done: The iKs can be measured selectively in the manner described below: the hearts are quickly removed from anaesthetised dogs and a muscle section from the left ventricle is perfused with collagenase-containing solution via an arterial vessel. The well-dissociated tissue is comminuted and the individualised cardiac muscle cells are investigated electrophysiologically using the “whole-cell patch-clamp” method (cf. O. P. […] The iKs is then determined using the current amplitude immediately after a 5-second pulse protocol of -40 mV holding potential at most +50 mV depolarisation. The iKr (HERG) can be measured selectively in the manner stated below: to measure the iKr, a cell line (human embryonal kidney cells, HEK293; see e.g. American Tissue Culture Collection (=ATCC) No.: CRL-1573) is used, which is stably transfected with the gene for the iKr (HERG) (cf. Z. Zhou et al., Biophysical Journal 74(1) (1998) 230-241). […] The iKr is determined using the current amplitude at -40 mV holding potential immediately after a 500 ms pulse protocol of -75 mV holding potential at most +10 mV depolarisation. That substance concentration at which 50% of the maximum current is blocked (IC50 %) is determined from the inhibitions of the corresponding current at different substance concentrations.
On the technique in general: The patch-clamp technique gives a direct electrical read-out from membranes.

In another data set the target is T2, iKr (HERG) (Homo sapiens, UniProt Q12809).
T2 construct: expressed in transfected cells; host or cells: HEK293 (ATCC CRL-1573), stably transfected
In words: Blocking action on rapid delayed rectifier potassium current iKr (HERG), HEK293 cells stably transfected. Format: cell-based. Conditions: HEK293 cells stably transfected with HERG. Here is the method:
The iKr (HERG) can be measured selectively in the manner stated below: to measure the iKr, a cell line (human embryonal kidney cells, HEK293; see e.g. American Tissue Culture Collection (=ATCC) No.: CRL-1573) is used, which is stably transfected with the gene for the iKr (HERG) (cf. Z. Zhou et al., Biophysical Journal 74(1) (1998) 230-241). […] The iKr is determined using the current amplitude at −40 mV holding potential immediately after a 500 ms pulse protocol of −75 mV holding potential at most +10 mV depolarisation. That substance concentration at which 50% of the maximum current is blocked (IC50 %) is determined from the inhibitions of the corresponding current at different substance concentrations.

Data set [3] relates to isolated perfused rabbit hearts. The data set is described as follows: In vitro potential proarrhythmogenity on isolated perfused rabbit hearts (monophasic action potential). Conditions: three hearts (n=3), one value each; for Instability: control about 7 ms; for Triangulation: control about 90 ms. How it is done:
The extent of the potential proarrhythmogenity of Class III antiarrhythmic substances can be estimated using the measurement of electrophysiological parameters such as “instability” and “triangulation” (see below) on the monophasic action potential, derived from isolated perfused rabbit hearts. The pharmacological test set forth below was performed analogously to the method fundamentally described in L. M. Hondeghem et al., Circulation 103 (2001) 2004-2013 (referred to hereafter as “Hondeghem et al.”), in conjunction with L. M. Hondeghem, Journal of Cardiovascular Electrophysiology 5(8) (1994) 711-721 (referred to hereafter as “Hondeghem”). The hearts were quickly removed from rabbits which had been sacrificed by a blow to the back of the neck, and were immediately perfused in a Langendorff arrangement under constant pressure (80 cm H2O) with temperature-controlled oxygenated nutrient solution. The heart was stimulated with different stimulation protocols using two stimulation electrodes which were each arranged in the region of the right and left crus of the bundle of His (cf. “Hondeghem et al.”). Two further electrodes (one discharge electrode endocardially in the region of the septum of the left ventricle and a reference electrode epicardially on the left ventricle) served to discharge the monophasic action potential.
Using the monophasic action potential duration with different repolarisation levels (APD10-90; “APD10” designates the action potential duration until the occurrence of 10% of repolarisation), the following parameters were derived as indicators of the proarrhythmogenity:
(1) Instability: The change in the APD60 from heartbeat to heartbeat is designated “instability”. Under control conditions, this value is on average about 7 milliseconds (=ms). Greater deviations from this average value towards a longer duration (>7 ms) indicate an increased probability of occurrence for proarrhythmias caused by the test substances investigated.
(2) Triangulation: The repolarisation time in ms from APD30 to ADP90 is designated “triangulation”. Under control conditions, this value is usually about 90 ms.
The results obtained with the method described above on three hearts (n=3) in each case are reproduced in the following Table D.

T2 sequence (Q12809 whole entry): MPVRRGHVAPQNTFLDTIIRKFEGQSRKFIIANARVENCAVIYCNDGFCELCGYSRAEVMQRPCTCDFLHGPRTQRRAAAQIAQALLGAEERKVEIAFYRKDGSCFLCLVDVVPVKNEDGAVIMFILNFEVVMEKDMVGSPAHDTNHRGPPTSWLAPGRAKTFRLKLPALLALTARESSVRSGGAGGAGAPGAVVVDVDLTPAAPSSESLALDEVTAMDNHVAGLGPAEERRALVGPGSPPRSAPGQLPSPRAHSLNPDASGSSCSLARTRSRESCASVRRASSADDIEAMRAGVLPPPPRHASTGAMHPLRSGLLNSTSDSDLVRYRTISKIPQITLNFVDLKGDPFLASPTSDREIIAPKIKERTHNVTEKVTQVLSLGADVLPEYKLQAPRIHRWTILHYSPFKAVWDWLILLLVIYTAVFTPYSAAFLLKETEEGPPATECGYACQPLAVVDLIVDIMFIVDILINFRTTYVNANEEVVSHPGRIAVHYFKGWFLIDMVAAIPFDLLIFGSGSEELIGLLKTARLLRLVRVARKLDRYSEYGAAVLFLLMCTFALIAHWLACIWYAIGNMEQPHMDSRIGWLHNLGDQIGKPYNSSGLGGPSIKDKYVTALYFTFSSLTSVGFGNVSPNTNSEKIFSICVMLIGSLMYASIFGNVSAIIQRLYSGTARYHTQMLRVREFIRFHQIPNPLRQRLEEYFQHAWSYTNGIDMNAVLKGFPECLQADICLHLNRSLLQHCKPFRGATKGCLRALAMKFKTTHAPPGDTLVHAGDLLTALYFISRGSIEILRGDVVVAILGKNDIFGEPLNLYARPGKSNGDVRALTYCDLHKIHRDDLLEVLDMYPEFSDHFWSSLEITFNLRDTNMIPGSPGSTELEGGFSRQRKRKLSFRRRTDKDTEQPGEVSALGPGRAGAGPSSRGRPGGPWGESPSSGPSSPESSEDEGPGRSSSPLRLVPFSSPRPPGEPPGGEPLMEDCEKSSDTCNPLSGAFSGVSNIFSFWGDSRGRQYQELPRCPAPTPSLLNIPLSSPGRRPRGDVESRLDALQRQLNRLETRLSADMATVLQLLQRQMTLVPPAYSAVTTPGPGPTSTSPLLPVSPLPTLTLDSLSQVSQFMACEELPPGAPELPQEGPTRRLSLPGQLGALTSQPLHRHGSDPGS

Take `CCCCN1CC2CN(c3ccc([N+](=O)[O-])cc3[N+](=O)[O-])CC(C1)C2(C)C` [Example 1, 7-(n-Butyl)-3-(2,4-dinitrophenyl)-9,9-dimethyl-3,7-diazabicyclo[3.3.1]nonane]: in data set [1] (cumulative doses, dose prolonging ERP to 115% of starting value, heart rate about 150% of normal), the “Antiarrhythmic action ERP-ED115” value turned out to be 0.4 µmol/kg. In data set [1] (dose decreasing diastolic arterial pressure to 85% of starting value, >> = no tendency to vasodepression at the doses tested), the “Vasodepression ED85 DAP” value is given as >>10 μmol/kg. Further, the “Vasodepression ED85 SAP” value in data set [1] (dose decreasing systolic arterial pressure to 85% of starting value, >> = no tendency to vasodepression at the doses tested) is >>10 μmol/kg. For the same compound, in data set [2], the “Antiarrhythmic action FRP-EC+12 ms” value amounted to 0.6 µmol/L. The same compound had a Minimum toxic dose in the data set on mice of 300 mg/kg.
For the compound `CCCCN1CC2CN(c3ccc(C#N)cc3)CC(C1)C21CCCC1.O=C(O)C(O)C(O)C(=O)O` [Example 4, 7-(n-Butyl)-3-(4-cyanophenyl)-9,9-tetramethylene-3,7-diazabicyclo[3.3.1]nonane Hydrogen Tartrate], in data set [2], the “Antiarrhythmic action FRP-EC+12 ms” value turned out to be 0.8 µmol/L. Further, the “increase in the fibrillation threshold” value with anaesthetised cats (administration i.v.) is “dosage-dependent, clear, long-lasting increase in the fibrillation threshold”; in the data set on anaesthetised cats (administration p.o.) it was “dosage-dependent, clear, long-lasting increase in the fibrillation threshold”. Besides, the IC50 at iKs came to 700 nM; against iKr (HERG), 20 nM. In addition, the Instability was 6/3/3 in data set [3] (0.3 μM) and 6/25/7 in data set [3] (1 μM). Moreover, the Triangulation in data set [3] (0.3 μM) is 48/64/62; in data set [3] (1 μM), 52/79/79.

For orientation: IC50 means the concentration that inhibits the measured activity by half.

Source of the values: patent US6602880B2, “3-phenyl-3,7-diazabicyclo[3.3.1] nonane compounds, process for preparing them, pharmaceutical compositions containing them and use thereof to inhibit cardiac arrhythmia” (priority 2001, dated 2003).
